Data published in patent US7332495B2 (priority 2002, dated 2008).
Like-named read-outs stand apart in the source and are kept apart here. Marks after values point to notes of the source that are not given here.

Legend:
Mice [1] = assay: Mice 55° C. hot plate; format: in vivo; conditions: Mus musculus, po, read-out: Analgesia ED50
Experimental: (§1) Two species of animals (mice and rats) and four types of pain testing models (i.p. 0.7% acetic acid, s.c. 5% formalin, hot plate 55° C., focused radiant heat) were used.

Acute toxicity in mice = conditions: mouse, in vivo, po, Bliss method
Mice [2] = assay: Jumping test in mice (Narcan precipitated); format: in vivo; conditions: for Times for jump (IV ± SD): 3 times per day for 7 days, Narcan i.p. 2 mg/kg
Experimental: Sixty-four mice were divided into 4 groups (16 for each group, ? fifty-fifty) Morphine, IV-12-1 (75 mg/Kg) IV-12-2 (100 mg/Kg) and saline were administrated respectively 3 times per day for 7 days with progressive dose increase. On the 7th day, Narcan is injected (i.p. 2 mg/kg) to precipitate withdrawal. The number of times for the mice to jump was recorded and the incidence of the jump calculated.

NMDA receptor [3] = assay: Binding test with NMDA receptor; conditions: 0.1 μM, 1 μM and 10 μM
Kunming mice [4] = assay: Sedation: spontaneous activities recorded with alternating current tube; format: in vivo
Experimental: Kunming mice were used, with a male-female ratio of 50-50%. […] After 30 minutes, acetic acid (0.7%, […] i.p.) was injected and the number of writhes was observed during a 5-minute period after acetic acid administration. The inhibition ratio of the writhing threshold was calculated. The alternating current tube is used to record the spontaneous activities for measuring sedation.

rat [5] = assay: animal or person; conditions: for responders at 20 mg/kg: ip
Experimental: Using 55° C. hot plate pain threshold detector (available from Ninghai Baishi Electronic Medical Instrument Co., Zheijiang, China) the threshold change before and after administration of a pharmaceutical composition of the present invention is tested. […] hind paw was scrubbed with alcohol cotton ball before the experiment. The regular pain threshold was tested twice for each rat, the induced hind paw licking time being recorded as the pain threshold. Measurements were made at 20-30 minute intervals. Only rats with stable pain reaction were used in the pharmaceutical test.
as §1

rat [6] = assay: Rat 5% formalin paw s.c.; format: in vivo; conditions: p.o., read-out: Analgesia ED50
Experimental: as §1

voltage-gating channel = assay: Electrophysiology of hippocampus's pyramidal cell: voltage-gating channel; format: cell-based
rats [7] = assay: Precipitated withdrawal test in rats; format: in vivo; conditions: for Abstinence syndrome (IV ± SD): 14 days, Narcan i.p. 4 mg/kg
Experimental: 48 rats were divided into 4 groups (12 for each group, ? fifty-fifty). Morphines IV-12-1 (75 mg/Kg), IV-12-2 (100 mg/Kg) and saline, was administered respectively using progressive dose increase for 14 days and 3 times per day. On the 15th day, Narcan is injected (i.p. 4 mg/kg) to precipitate withdrawal. The withdrawal syndrome was observed and the rats wre weighed at 30, 60 and 120 minutes after the injection respectively.

NMDA receptor [8] = assay: Electrophysiology of hippocampus's pyramidal cell: NMDA-induced current; format: cell-based; conditions: 100 μM NMDA; read-out: IC50 of suppression of current induced by NMDA
rats [9] = assay: Spontaneous withdrawal tests (body weight); format: in vivo
Experimental: 96 mice were divided into 4 groups (24 for each group, ? fifty-fifty), and Morphine, IV-12-1, IV-12-2, warm boiled water were administered respectively, using progressive dose increase for 7 days (i.g.) and 2 times per day. The weight of the rats after drug withdrawal was compared with the weight one day before drug withdrawal at a corresponding time (See Table 9 and 10).

Mice [10] = assay: Swelling caused by p-dimethylbenzene in mice; format: in vivo; conditions: p.o. 15 or 30 mg/kg
Kunming mice [11] = assay: Mice writhing model (acetic acid); format: in vivo
Method in brief: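 Mixed-sex mice received test compound at 20 mg/Kg i.p.; controls received saline p.o. (20 ml/Kg). Thirty minutes later 0.7% acetic acid (10 mg/kg i.p.) was injected, and writhes were counted over 5 minutes. Inhibition ratio was calculated relative to control.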

rats [12] = assay: Defervescence in rats given Brewers' yeast; format: in vivo; conditions: p.o., 60 mg/kg, Brewers' yeast s.c. 7%
Acute toxicity in rats = conditions: rat, in vivo, po, Bliss method
rat [13] = assay: Rat tail flick model (focused radiant heat); format: in vivo
Experimental: A 8.75 mm-projecting lamp (12 v, 50 w) was used to give out focused radiant heat. The terminal 3 cm of the tail is exposed to the heat. The intensity of the focused radiant heat is regulated by a transformer to ensure that the time required to elicit a tail flick response is within 3-5 seconds. The rat's pain threshold is pre-tested for 2-3 times; and only animals with stable reactions were used in the pharmaceutical test. The test substance is taken orally 20 mg/kg. The number of rats whose increase in time for eliciting a tail flick response is by 100% or more at the peak of the drug action (30-45 minutes after administration) is used to calculate analgesic effect.
as §1

[14] = system: S. typhimurium TA97, TA98, TA100 and TA102; assay: Bacterial reverse-mutation assay (Ames); format: cell-based; conditions: for Effect on bacterial growth: 5000 μg/plate
Text: Strains: S. typhimurium TA97, TA98, TA100 and TA102
Results: The assay included two parts without S9 and with S9. […] For all tested doses, there was no significant increase of revertants. Ames test for of IV-12 is negative.

## Nc1ccc(CN2CCN(CC(=O)c3ccccc3)CC2)cc1 [IV-12, N^1-(4-aminobenzyl)-N^4-phenacyl piperazine]
Mice [1]
  ED50: 20.6 mg/kg
Acute toxicity in mice
  LD50: 309 mg/kg
Mice [2]; IV-12-1 (75 mg/Kg)
  Incidence for jump (%): 43.8*^## %
  Times for jump (IV ± SD): 9 ± 18
Mice [2]; IV-12-2 (100 mg/Kg)
  Incidence for jump (%): 62.5* %
  Times for jump (IV ± SD): 33 ± 40
NMDA receptor [3]
  Antagonism on Glu site of NMDA receptor: no antagonism
  Antagonism on Gly site of NMDA receptor: no antagonism
  Antagonism on ion-channel site of NMDA receptor: no antagonism
Kunming mice [4]; 20 mg/kg, Table 5 summary
  Sedation (writhing model): 97
Kunming mice [4]; Mus musculus, ip, i.p. 20 mg/Kg, spontaneous activities
  inhibition in vivo at 20 mg/kg: 97%
Rat [5]; 20 mg/kg, Table 5 summary
  Increase (hot plate) (%): 100%
Rat [5]; Rattus norvegicus, read-out: Analgesic ratio (Increase by 100%)
  responders at 20 mg/kg: 100%
Rat [5]; Rattus norvegicus, read-out: Analgesic ratio (More than 60 seconds)
  responders at 20 mg/kg: 80%
Rat [5]; Rattus norvegicus, po, read-out: Analgesia ED50
  ED50: 52.4 mg/kg
Rat [6]
  ED50: 102 mg/kg
voltage-gating channel
  Effect on voltage-gating channel: did not affect
Rats [7]; IV-12-1 (75 mg/Kg), 30 min after Narcan
  Percent of the lost weight (IV ± SD): −1.8 ± 1.4
Rats [7]; IV-12-1 (75 mg/Kg), 60 min after Narcan
  Percent of the lost weight (IV ± SD): −2.6 ± 1.5
Rats [7]; IV-12-1 (75 mg/Kg), 120 min after Narcan
  Percent of the lost weight (IV ± SD): −3.1 ± 1.5
Rats [7]; IV-12-1 (75 mg/Kg)
  Abstinence syndrome (IV ± SD): 4.7 ± 3.9
Rats [7]; IV-12-2 (100 mg/Kg), 30 min after Narcan
  Percent of the lost weight (IV ± SD): −3.1 ± 1.3
Rats [7]; IV-12-2 (100 mg/Kg), 60 min after Narcan
  Percent of the lost weight (IV ± SD): −3.9 ± 1.4
Rats [7]; IV-12-2 (100 mg/Kg), 120 min after Narcan
  Percent of the lost weight (IV ± SD): −4.2 ± 1.5
Rats [7]; IV-12-2 (100 mg/Kg)
  Abstinence syndrome (IV ± SD): 5.3 ± 2.1
NMDA receptor [8]
  IC50: 1110 ± 1000 nM
Rats [9]; IV-12-1 75 mg/kg, 138 h after withdrawal
  Weight after withdrawal compared with weight one day before withdrawal: 1.08 ± 0.06
Rats [9]; IV-12-1 (75 mg/kg), 18 h after withdrawal
  Increase (%) of weight: 3.9%
Rats [9]; IV-12-1 (75 mg/kg), 36 h after withdrawal
  Increase (%) of weight: 5.3%
Rats [9]; IV-12-1 (75 mg/kg), 60 h after withdrawal
  Weight: 258.5 ± 38 g
Rats [9]; IV-12-1 (75 mg/kg), 72 h after withdrawal
  Weight: 251.6 ± 36 g
Rats [9]; IV-12-2 100 mg/kg, 18 h after withdrawal
  Weight after withdrawal compared with weight one day before withdrawal: 1.01 ± 0.04
Rats [9]; IV-12-2 (75 mg/kg), 60 h after withdrawal
  Increase (%) of weight: 1.9%
Rats [9]; IV-12-2 (75 mg/kg), 114 h after withdrawal
  Weight: 260.1 ± 30 g
Rats [9]; IV-12-2 (75 mg/kg), 132 h after withdrawal
  Increase (%) of weight: 7.0%
Rats [9]; groups IV-12-1 and IV-12-2
  Weight after drug withdrawal (in words): did not decrease
Mice [10]
  Antagonism for swelling caused by p-dimethylbenzene: no antagonism
Kunming mice [11]; 20 mg/kg, Table 5 summary
  Writhing (K i): 100
Kunming mice [11]; Mus musculus, ip, i.p. 20 mg/Kg, acetic acid 0.7% i.p. after 30 minutes, writhes in 5 minutes, read-out: Analgesia (inhibition ratio of writhing)
  inhibition in vivo at 20 mg/kg: 100%
Kunming mice [11]; Mus musculus, po, Mice, Acetic acid Writhing, read-out: Analgesia ED50
  ED50: 13.2 mg/kg
Rats [12]
  Defervescence effect: no defervescence effect
Acute toxicity in rats
  LD50: 414 mg/kg
Rat [13]; 20 mg/kg, Table 5 summary
  Increase (tail flick) (%): 34%
Rat [13]; Rattus norvegicus, po, orally 20 mg/kg, read-out: increase (%) of tail flick time
  change in vivo at 20 mg/kg: 34%
Rat [13]; orally 20 mg/kg, 30-45 minutes after administration
  After (s) tail flick time: 10.05 s
[14]; with S9, TA97
  Effect on bacterial growth: inhibitory effect
[14]; without S9, TA98
  Effect on bacterial growth: inhibitory effect
[14]; without S9 and with S9, TA97, TA98, TA100, TA102
  Ames test: negative
